Laboratory results reported in patent US8658620B2, “Pharmaceutical composition, use of 2-iminopyrrolidine derivative for production of pharmaceutical composition, and kit for treatment or amelioration of heart diseases” (Eisai R&D Management Co., Ltd., priority 2008, dated 2014).
Counter-ions that a name gives are not always drawn.

Tested on: guinea pig photosensitization-induced thrombus model
Test: guinea pig photosensitization-induced thrombus model (rose bengal / green light, femoral artery blood flow time)
Assay type: in vivo
Conditions: male Hartley guinea pigs, oral, about 115-120 min after administration, vehicle control 6.72 minutes
Method: At least one compound selected from the group consisting of the formulas (I) to (VII) or a pharmacologically acceptable salt thereof and at least one other compound (B) selected from group B are administered orally, single or in mixture, to male Hartley guinea pigs. As a vehicle, 0.5% methylcellulose solution or an aqueous solution containing dimethylsulfoxide and Tween 20 is used. (These compounds may be administered repeatedly.)
At a specific time after the oral administration, guinea pigs are anesthetized by intraperitoneal administration of sodium pentobarbital. Under anesthesia, the cervical vein is exposed and a polyethylene tube is cannulated thereinto for administering rose bengal. The femoral artery is exposed and fitted with a probe for blood flow measurement. A site upstream of the probe is irradiated with green light (wavelength 540 nm, 500,000 lux). […] Time to complete cessation of blood flow is measured.
A hydrobromide of a compound represented by the formula (I) (hereinafter, referred to as “the compound of Example 1”) and aspirin were dissolved with DMSO to give concentrations of 200 mg/mL and 1000 mg/mL, respectively. […] Blood flow time from the beginning of rose bengal administration to the complete cessation of blood flow was measured to evaluate antithrombotic effects.

Compound | blood flow time from the beginning of rose bengal administration to the complete cessation of blood flow (compound of Example 1 alone 30 mg/kg) | blood flow time from the beginning of rose bengal administration to the complete cessation of blood flow (aspirin alone 100 mg/kg)
CCOc1cc2c(c(F)c1OCC)C(=N)N(CC(=O)c1cc(N3CCOCC3)c(OC)c(C(C)(C)C)c1)C2 [Example 1, 1-(3-tert-Butyl-4-methoxy-5-morpholino-phenyl)-2-(5,6-diethoxy-7-fluoro-1-imino-1,3-dihydro-isoindol-2-yl)-ethanone; hydrobromide] | 10.77 min | 
CC(=O)Oc1ccccc1C(=O)O [aspirin] |  | 11.30 min
